The structures appear in SMILES notation.

The nature of the series: RP, Waters ACQUITY UPLC BEH C18, 100 × 2.1 mm, 1.7 µm, 0.3 mL/min, estimated dead time 0.73 min; A: water + 0.1% formic acid, pH 3; B: methanol + 0.1% formic acid, pH 3; gradient (min/%B) 0/10 14/90 16/90 18/10. Particulars: stereoisomer not certain.
With `O=C1OC(CN2CCOCC2)CN1N=Cc1ccc([N+](=O)[O-])o1` (stereo not drawn) [Furaltadone], the LC retention time was 2.64 min. The same measure for `CCCCOC(=O)N(C)SN(C)C(=O)Oc1cccc2c1OC(C)(C)C2` [Furathiocarb]: 12.8 min; for `O=C1OCCN1N=Cc1ccc([N+](=O)[O-])o1` [Furazolidone]: 2.96 min.

On to `NS(=O)(=O)c1cc(C(=O)O)c(NCc2ccco2)cc1Cl` [Furosemide], for which the LC retention time was 6.6 min. The same measure for `Cn1c([N+](=O)[O-])cnc1CO` [HMMNI (Hydroxy Dimetridazole)]: 2.23 min. For `CC(=O)OCC12CC(OC(=O)CC(C)C)C(C)=CC1OC1C(O)C(O)C2(C)C12CO2` (stereo not drawn) [HT-2 Toxin] the value was 7.95 min. With `CC(C)(C)N(NC(=O)c1ccc(Cl)cc1)C(=O)c1ccccc1` [Halofenozide], the LC retention time was 9.91 min. `COC(=O)c1c(Cl)nn(C)c1S(=O)(=O)NC(=O)Nc1nc(OC)cc(OC)n1` [Halosulfuron methyl]: the LC retention time is 7.16 min. Turning to `CCOCCOC(=O)C(C)Oc1ccc(Oc2ncc(C(F)(F)F)cc2Cl)cc1` (stereo not drawn) [Haloxyfop-2-ethoxyethyl], the LC retention time is 13.1 min. The same measure for `COC(=O)C(C)Oc1ccc(Oc2ncc(C(F)(F)F)cc2Cl)cc1` (stereo not drawn) [Haloxyfop-methyl]: 12.6 min; for `CC(Oc1ccc(Oc2ncc(C(F)(F)F)cc2Cl)cc1)C(=O)O` (stereo not drawn) [Haloxyfop]: 11.8 min; for `COP(=O)(OC)OC1=C(Cl)C2C=CCC12` (stereo not drawn) [Heptenophos]: 9.33 min. Regarding `CC(=O)Oc1ccc2c3c1OC1C(OC(C)=O)C=CC4C(C2)N(C)CCC341` (stereo not drawn) [Heroin], the LC retention time was 5.32 min. For `CCCCC(O)(Cn1cncn1)c1ccc(Cl)cc1Cl` (stereo not drawn) [Hexaconazole] the value was 12 min; for `O=C(NC(=O)c1c(F)cccc1F)Nc1cc(Cl)c(OC(F)(F)C(F)F)c(Cl)c1` [Hexaflumuron], 12.6 min.

For the molecule `CN(C)c1nc(=O)n(C2CCCCC2)c(=O)n1C` [Hexazinone], the LC retention time is 7.56 min. The same measure for `CCC(c1ccc(O)cc1)C(CC)c1ccc(O)cc1` (stereo not drawn) [Hexestrol]: 11.3 min; for `CC1C(c2ccc(Cl)cc2)SC(=O)N1C(=O)NC1CCCCC1` (stereo not drawn) [Hexythiazox]: 14.2 min; for `CC1(C)CN=C(NN=C(C=Cc2ccc(C(F)(F)F)cc2)C=Cc2ccc(C(F)(F)F)cc2)NC1` [Hydramethylnon]: 12.8 min. With `CC12CCC(=O)C=C1CCC1C2C(O)CC2(C)C1CCC2(O)C(=O)CO` (stereo not drawn) [Hydrocortisone], the LC retention time is 8.53 min. The same measure for `Cn1c([N+](=O)[O-])cnc1C(C)(C)O` [Hydroxyipronidazole (IPZOH)]: 4.6 min. The same measure for `CC(C)(CO)NCC(O)c1cc(Cl)c(N)c(Cl)c1` (stereo not drawn) [Hydroxymethyl clenbuterol]: 4.17 min; for `O=[N+]([O-])c1cnc(CO)n1CCO` [Hydroxymetronidazole (MNZOH)]: 1.9 min.

For the molecule `CC(C)Cc1ccc(C(C)C(=O)O)cc1` (stereo not drawn) [Ibuprofen], the LC retention time was 12.4 min. `C=CCOC(Cn1ccnc1)c1ccc(Cl)cc1Cl` (stereo not drawn) [Imazalil]: the LC retention time is 9.14 min. In the case of `COCc1cnc(C2=NC(C)(C(C)C)C(=O)N2)c(C(=O)O)c1` (stereo not drawn) [Imazamox], the LC retention time was 3.21 min.

As to `CC(C)C1(C)N=C(c2nc3ccccc3cc2C(=O)O)NC1=O` (stereo not drawn) [Imazaquin], the LC retention time was 5.22 min. On to `Clc1ccc(CSC(Cn2cncn2)=Nc2ccc(Cl)cc2Cl)cc1` [Imibenconazole], for which the LC retention time was 13 min. On to `O=[N+]([O-])/N=C1\NCCN1Cc1ccc(Cl)nc1` [Imidacloprid], for which the LC retention time was 4.63 min. For the molecule `CC(C)OP(=O)(OC(C)C)SCc1ccccc1` [Iprobenfos], the LC retention time was 11.5 min. The same measure for `CC(C)NC(=O)N1CC(=O)N(c2cc(Cl)cc(Cl)c2)C1=O` [Iprodione]: 11.9 min; for `CC(C)c1ncc([N+](=O)[O-])n1C` [Ipronidazole (IPZ)]: 5.42 min. On to `CCCCC1=NC2(CCCC2)C(=O)N1Cc1ccc(-c2ccccc2-c2nn[nH]n2)cc1` [Irbesartan], for which the LC retention time is 10.4 min. As to `CCOP(=S)(OCC)Oc1nc(Cl)n(C(C)C)n1` [Isazophos], the LC retention time was 10.8 min. The same measure for `CCOP(=S)(NC(C)C)Oc1ccccc1C(=O)OC(C)C` (stereo not drawn) [Isofenphos]: 12.1 min; for `CC(C)OC(=O)C(C(=O)OC(C)C)=C1SCCS1` [Isoprothiolane]: 10.4 min.

For `CC(C)c1ccc(NC(=O)N(C)C)cc1` [Isoproturon], the LC retention time is 9.6 min. Consider `CCC(C)(CC)c1cc(NC(=O)c2c(OC)cccc2OC)on1` [Isoxaben], for which the LC retention time was 10.4 min.

In the case of `CCC(C)C1OC2(CCC1C)CC1CC(CC=C(C)C(OC3CC(OC)C(OC4CC(OC)C(O)C(C)O4)C(C)O3)C(C)C=CC=C3COC4C(O)C(C)=CC(C(=O)O1)C34O)O2` (stereo not drawn) [Ivermectin], the LC retention time is 16.3 min. The same measure for `COC1C(OC(C)=O)CC(=O)OC(C)CC=CC=CC(O)C(C)CC(CC=O)C1OC1OC(C)C(OC2CC(C)(O)C(OC(=O)CC(C)C)C(C)O2)C(N(C)C)C1O` (stereo not drawn) [Josamycin]: 11.4 min; for `CNC1(c2ccccc2Cl)CCCCC1=O` (stereo not drawn) [Ketamine]: 4.88 min; for `CC(C(=O)O)c1cccc(C(=O)c2ccccc2)c1` (stereo not drawn) [Ketoprofen]: 10.3 min. The same measure for `CON=C(C(=O)OC)c1ccccc1COc1ccccc1C` [Kresoxim-methyl]: 11.7 min; for `O=c1[nH]c2c(c(=O)n1C1CCCCC1)CCC2` [Lenacil]: 8.9 min. The same measure for `CN(C)c1ccc(C(c2ccccc2)c2ccc(N(C)C)cc2)cc1` [Leucomalachite green]: 10.4 min; for `CCCC1CC(C(=O)NC(C(C)O)C2OC(SC)C(O)C(O)C2O)N(C)C1` (stereo not drawn) [Lincomycin]: 3.56 min; for `CON(C)C(=O)Nc1ccc(Cl)c(Cl)c1` [Linuron]: 10.3 min.

As to `O=C1Nc2ccc(Cl)cc2C(c2ccccc2Cl)=NC1O` (stereo not drawn) [Lorazepam], the LC retention time was 9.87 min. For `O=C(NC(=O)c1c(F)cccc1F)Nc1cc(Cl)c(OC(F)(F)C(F)C(F)(F)F)cc1Cl` (stereo not drawn) [Lufenuron] the value was 9.67 min; for `CC(N)Cc1ccc2c(c1)OCO2` (stereo not drawn) [MDA], 3.62 min; for `CCNC(C)Cc1ccc2c(c1)OCO2` (stereo not drawn) [MDEA], 4.27 min.

`CNC(C)Cc1ccc2c(c1)OCO2` (stereo not drawn) [MDMA]: the LC retention time is 3.79 min.

Take `CC(C)(C)NCC(O)c1cc(Cl)c(N)c(C(F)(F)F)c1` (stereo not drawn) [Mabuterol]: the LC retention time is 6.05 min. For `COC1CC(OC2CC(C3OC(C)(O)C(C)CC3C)OC2C2(C)CCC(C3(C)CCC4(CC(O)C(C)C(C(C)C5OC(O)(CC(=O)O)C(C)C(OC)C5OC)O4)O3)O2)OC(C)C1OC` (stereo not drawn) [Maduramicine], the LC retention time is 15.7 min. The same measure for `CCOC(=O)CC(SP(=S)(OC)OC)C(=O)OCC` (stereo not drawn) [Malathion]: 11.6 min; for `CCC(C)(C)NCC(O)c1cc(Cl)c(N)c(C(F)(F)F)c1` (stereo not drawn) [Mapenterol]: 7.01 min. In the case of `CN1CCN(c2c(F)cc3c(=O)c(C(=O)O)cn4c3c2OCN4C)CC1` [Marbofloxacin], the LC retention time is 2.84 min. Turning to `CN(C(=O)COc1nc2ccccc2s1)c1ccccc1` [Mefenacet], the LC retention time is 10.7 min. In the case of `Cc1cccc(Nc2ccccc2C(=O)O)c1C` [Mefenamic acid], the LC retention time is 13.4 min. Turning to `CC#Cc1cc(C)nc(Nc2ccccc2)n1` [Mepanipyrim], the LC retention time was 10.7 min. In the case of `Cc1ccccc1C(=O)Nc1cccc(OC(C)C)c1` [Mepronil], the LC retention time was 10.4 min. The same measure for `CS(=O)(=O)c1ccc(C(=O)C2C(=O)CCCC2=O)c([N+](=O)[O-])c1` [Mesotrione]: 5.53 min; for `COCC(=O)N(c1c(C)cccc1C)C(C)C(=O)OC` (stereo not drawn) [Metalaxyl]: 9.73 min; for `Cc1nnc(-c2ccccc2)c(=O)n1N` [Metamitron]: 4.51 min. As to `Cc1cccc(C)c1N(Cn1cccn1)C(=O)CCl` [Metazachlor], the LC retention time was 8.95 min.

Consider `CC1(C)CCC(Cc2ccc(Cl)cc2)C1(O)Cn1cncn1` (stereo not drawn) [Metconazole], for which the LC retention time is 11.9 min. For `COC(=O)C(C)=COP(=S)(OC)OC` [Methacrifos] the value was 9.37 min; for `CCC(=O)C(CC(C)N(C)C)(c1ccccc1)c1ccccc1` (stereo not drawn) [Methadone], 10.4 min; for `CNC(C)C(=O)c1ccccc1` (stereo not drawn) [Methcathinone], 2.95 min. The same measure for `COc1nn(CSP(=S)(OC)OC)c(=O)s1` [Methidathion]: 9.91 min. The same measure for `CNC(=O)Oc1cc(C)c(S(C)(=O)=O)c(C)c1` [Methiocarb sulfone]: 4.46 min; for `CNC(=O)Oc1cc(C)c(S(C)=O)c(C)c1` (stereo not drawn) [Methiocarb sulfoxide]: 4.6 min.

Turning to `CNC(=O)Oc1cc(C)c(SC)c(C)c1` [Methiocarb], the LC retention time is 8.89 min. The same measure for `CNC(=O)ON=C(C)SC` [Methomyl]: 3.09 min. The same measure for `CON(C)C(=O)Nc1ccc(Br)cc1` [Metobromuron]: 8.53 min; for `CCc1cccc(C)c1N(C(=O)CCl)C(C)COC` (stereo not drawn) [Metolachlor]: 11.7 min; for `COCCc1ccc(OCC(O)CNC(C)C)cc1` (stereo not drawn) [Metoprolol]: 5.31 min. For `COc1cc(OC)n2nc(S(=O)(=O)Nc3c(Cl)ccc(C)c3Cl)nc2n1` [Metosulam] the value was 7.54 min.

The values above are taken from the RepoRT retention time repository (doi:10.1016/j.scitotenv.2015.08.078).
